Reference: ChEMBL document CHEMBL5335784, “Discovery of a novel 1,3,4-oxadiazol-2-one-based NLRP3 inhibitor as a pharmacological agent to mitigate cardiac and metabolic complications in an experimental model of diet-induced metaflammation” (Eur J Med Chem, 2023)

Target: NACHT, LRR and PYD domains-containing protein 3 (Homo sapiens, UniProt Q96P20)
Assay: Inhibition of NLRP3-dependent pyroptosis in PMA-differentiated human THP-1 cells assessed as inhibition of LPS/MSU-induced cell death at 10 uM by LDH assay
Format: cell-based

NACHT, LRR and PYD domains-containing protein 3, sequence (Q96P20 whole entry, the tested form may be a part): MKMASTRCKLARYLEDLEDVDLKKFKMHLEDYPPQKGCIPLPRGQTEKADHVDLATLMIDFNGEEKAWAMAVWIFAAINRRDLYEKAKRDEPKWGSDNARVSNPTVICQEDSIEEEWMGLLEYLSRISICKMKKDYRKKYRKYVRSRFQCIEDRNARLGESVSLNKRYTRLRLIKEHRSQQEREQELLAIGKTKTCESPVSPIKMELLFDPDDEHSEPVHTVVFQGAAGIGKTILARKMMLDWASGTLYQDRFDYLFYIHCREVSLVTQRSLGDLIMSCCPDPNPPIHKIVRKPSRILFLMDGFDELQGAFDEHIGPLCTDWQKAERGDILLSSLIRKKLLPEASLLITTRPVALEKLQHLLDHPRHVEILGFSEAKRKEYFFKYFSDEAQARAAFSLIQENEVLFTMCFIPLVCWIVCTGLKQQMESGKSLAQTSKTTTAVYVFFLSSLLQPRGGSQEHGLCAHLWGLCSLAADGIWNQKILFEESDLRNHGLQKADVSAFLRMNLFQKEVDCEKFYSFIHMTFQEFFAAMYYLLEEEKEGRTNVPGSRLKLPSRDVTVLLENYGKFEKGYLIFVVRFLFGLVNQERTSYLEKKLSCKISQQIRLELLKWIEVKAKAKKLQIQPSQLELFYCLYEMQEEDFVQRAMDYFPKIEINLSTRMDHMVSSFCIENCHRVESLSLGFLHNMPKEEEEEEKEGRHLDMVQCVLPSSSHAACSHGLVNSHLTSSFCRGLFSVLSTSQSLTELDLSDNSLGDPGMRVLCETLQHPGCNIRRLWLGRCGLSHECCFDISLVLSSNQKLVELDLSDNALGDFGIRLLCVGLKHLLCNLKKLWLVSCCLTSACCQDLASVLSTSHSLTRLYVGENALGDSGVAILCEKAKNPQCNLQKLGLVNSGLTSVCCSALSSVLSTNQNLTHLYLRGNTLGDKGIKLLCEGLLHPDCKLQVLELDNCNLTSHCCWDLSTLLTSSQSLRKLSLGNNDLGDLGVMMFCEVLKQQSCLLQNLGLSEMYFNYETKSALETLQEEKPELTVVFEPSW

## CCOC(=O)Cn1nc(Cc2ccccc2Cl)oc1=O
  inhibition: 61.6%
